One compound from patent US20230277546A1, “AGENT FOR SUPPRESSING POST-SURGICAL CANCER RECURRENCE AND/OR METASTASIS” (ONO PHARMACEUTICAL CO., LTD., priority 2017, published 2023) can be followed below.

One experiment has as its system malignant lung tumor. The experiment is described as follows: Analysis of effects of landiolol hydrochloride in patients who underwent lung resection surgery (recurrence-free and overall survival, Kaplan-Meier). It is filed as in vivo, human. The method, then: Ethics committee approval was obtained before the study was started. Among the patients who underwent lung lobectomy, the outcomes were compared between those who were treated with landiolol hydrochloride and those who were not treated with it.
For each patient the following information was drawn from the medical chart from May 2012 to Mar. 31, 2017 and recorded in clinical report form (CRF). • Background of the patient (date of birth, sex, stage of lung cancer, weight, height, and performance status) • Date of the lung cancer surgery • Whether landiolol hydrochloride was administered or not, and if administered, the dose thereof • Date on which recurrence was diagnosed (date of diagnostic imaging or date on which recurrence was clinically diagnosed) • Date on which recurrence-free survival was last confirmed • Date of death • Date on which survival was last confirmed • Whether adjuvant chemotherapy was applied or not
The 2-year recurrence-free survival rate was compared between the patients who had been treated with landiolol hydrochloride and the patients who had not been treated with it to evaluate the effect of landiolol hydrochloride.
Kaplan-Meier method as described below was employed to calculate the 2-year recurrence-free survival rate.
The recurrence was defined as follows; • The recurrence included both of recurrence diagnosed on the basis of diagnostic imaging and clinical recurrence diagnosed on the basis of aggravation of a symptom instead of the diagnostic imaging. The date of recurrence was the date of the diagnostic imaging or the date on which the clinical recurrence was diagnosed. Even if an increased tumor marker was detected previously, the fact alone was not regarded as indicating recurrence and the date of recurrence was the date of the diagnostic imaging or the date on which the clinical recurrence was diagnosed. When no recurrence was diagnosed during the observation period, the patients were censored on the day of final confirmation of recurrence-free survival. • When recurrence was diagnosed by the diagnostic imaging, the event was regarded as having occurred on the date of the diagnostic imaging that gave the definitive diagnosis, not the date of the diagnostic imaging that raised the suspicion of recurrence. When recurrence was clinically diagnosed, the event was regarded as having occurred on the date of the diagnosis. • Definitive diagnosis of recurrence may be based on biopsy analysis. When recurrence was successfully diagnosed by the clinical diagnosis before the biopsy analysis, the event was regarded as having occurred on the date of the clinical diagnosis. When recurrence was not successfully diagnosed by the clinical diagnosis alone, but finally diagnosed by the biopsy analysis, the event was regarded as having occurred on the date of the biopsy analysis. • Occurrence of any one of secondary cancer, metachronous double cancers, and metachronous multiple cancers was not regarded as the event or the censor. Unless another event was observed, the patient was regarded as being recurrence-free. […]
The recurrence-free survival and the overall survival were calculated according to the following equations; • The recurrence-free survival (days)=“date of diagnosis of recurrence or date of death for any cause, whichever came earlier”−“date of surgery”+1 • The overall survival (days)=“date of death for any cause”−“date of surgery”+1 […]

For experiment [1], the system named is non-small cell lung cancer. The experiment in a line: Multicenter, unblinded, randomized, controlled investigator-initiated clinical trial: perioperative landiolol hydrochloride to suppress postsurgical recurrence. In kind it is in vivo, human. Particulars: 2.5 μg/kg/min at the beginning, adjusted 0.5 to 5 μg/kg/min; continuous iv from immediately before anesthetic induction for 72 hours. The method, then: Patients with non-small cell lung cancer who will undergo surgery for complete resection of the cancer are involved in the study. For evaluating effectiveness and safety of landiolol hydrochloride in the patients, a multicenter, unblinded, randomized, controlled, investigator-initiated clinical trial is carried out as described below. The control group includes the patients who undergo the surgery but are not treated with landiolol hydrochloride.
Primary endpoints: recurrence-free survival (RFS) over first two postoperative years and overall survival (OS)
Secondary endpoints: <Effectiveness> For example, whether the patients are subjected to treatment of recurrence or not, and if subjected, the period until the treatment; the time until OS or the treatment of recurrence, <Safety> adverse events, incidence of postoperative complication, blood pressure, 12-lead electrocardiogram, and general laboratory test
Dosage: 2.5 μg/kg/min at the beginning and adjusted in the range of 0.5 to 5 μg/kg/min
Administration period: continuous intravenous administration is started immediately before the anesthetic induction and kept for 72 hours

Where [2] appears, read: vs control group without administration, after lung cancer surgery.

SMILES strings stand for the structures. Where a name gives a salt, the structure may show the parent alone.

As for `CC1(C)OC[C@@H](COC(=O)CCc2ccc(OC[C@@H](O)CNCCNC(=O)N3CCOCC3)cc2)O1` [landiolol hydrochloride, Landiolol hydrochloride], in the experiment on malignant lung tumor (censored patients, first two postoperative years, test group N = 28), the “Censor, (%)” value was “(89.3) %”. For the same compound, in the experiment with malignant lung tumor (patients after lung resection surgery, intravenous continuous 2.5 μg/kg/min from induction to completion of anesthesia, N = 28, Kaplan-Meier), the “2-year Recurrence-free survival rate [95% CI]” value is recorded as 89.3%. Also, the “Event, (%)” value with malignant lung tumor (recurrence or death events within first two postoperative years, test group N = 28, 2.5 μg/kg/min iv continuous during anesthesia) was “(10.7) %”. Also, in the experiment with malignant lung tumor (setting [2]), the “overall survival (Kaplan-Meier curve, FIG. 2)” value is “tendency that the administration of landiolol hydrochloride prolongs” and the “recurrence-free survival (Kaplan-Meier curve, FIG. 1)” value is “tendency that the administration of landiolol hydrochloride prolongs”. The “effect to suppress recurrence and/or metastasis of the cancer” value in experiment [1] is listed as “confirms the effect”.
